# In paper PMC6273843, “Synthesis and Selective Cytotoxic Activities on Rhabdomyosarcoma and Noncancerous Cells of Some Heterocyclic Chalcones” (Molecules, 2016):
# Like-named read-outs stand apart in the source and are kept apart here.
# Columns and labels:
# [1] = system: Human muscle rhabdomyosarcoma (RMS) cell line (ATCC CCL-136); assay: MTT cell proliferation (cytotoxicity) assay on RMS cells; format: cell-based; settings: for IC50: MTT, 24 h incubation with sample
# [2] = MTT cytotoxicity assay on noncancerous LLC-PK1 cells; format: cell-based, Pig; settings: pig, LLC-PK1 pig kidney epithelial cells, read-out: % Cell Viability on Noncancer LLC-PK1 cells
# Method: (§1) Pig Kidney Epithelial (LLC-PK1) cell line (ATCC® CL-101™) was a generous gift of Prof. Jeong Hill Park, Research Institute of Pharmaceutical Science (College of Pharmacy, Seoul National University, Seoul 151-172, Korea).
# (§2) RMS or LLC-PK1 cells were seeded and cultured in EMEM medium (Gibco, Waltham, MA, USA) supplemented with 10% fetal calf serum (FCS) (Gibco), 2 mM L-glutamine, 100 IU/mL penicillin and 100 µg/mL streptomycin (Sigma-Aldrich, St. Louis, MO, USA) in a humidified atmosphere of 5% CO2 at 37 °C.
# (§3) The samples were dissolved in dimethyl sulfoxide (DMSO) at 10 mM and then diluted with culture medium to get three concentrations of 100; 50; 10 µM or 25; 12.5; 2.5 µM for cell proliferation assays. […] DMSO at different concentrations or was used as a blank control. Paclitaxel (Anzatax®, Mayne Pharma, Australia) was used as the reference compound at the concentration of 1, 5 and 10 µM (directly dissolved in culture medium).
# (§4) The cells were cells were seeded in 96-well plates at 4.2 × 10^4 cell/cm^2. After 24 h of incubation at 37 °C, 5% CO2, 100 μL of chalcone samples at tested concentrations, reference compound, and blank control (DMSO) was added and incubated for 24 hours at 37 °C, 5% CO2.
# (§5) Cell viability was evaluated as mitochondrial succinate dehydrogenase (SDH) activity, a marker of viable cells, using MTT test as described by Denizot and Lang. Briefly, SDH activity was detected after 3 hours incubation in culture medium without FCS containing 0.05 mg/mL MTT (3-4,5-dimethyl-thiazol-2-yl-2,5 diphenyl-tetrazolium bromide, Sigma-Aldrich), which is converted into formazan dissolved in acidified isopropanol (Merck, Darmstadt, Germany) by agitation for 10 min at room temperature. The produced purple solution was spectrophotometrically measured at 570 nm on Multiskan™ FC microplate Photometer (Thermo Scientific, Waltham, MA, USA).
# (§6) Each assay was done in triplicate and the standard deviation of absorbance was less than 10% of the mean. The results were expressed as Mean + SD of six cultures of one representative experiment and statistically analyzed by Mann-Whitney test with SPSS 22.0 for Windows software. Threshold of significance was set at p < 0.05.
# (§7) The IC50 values were calculated based on the linear regression between the concentrations of testing compound and the inhibition percentages of cells. The chalcone compounds with significant potential against RMS cells (IC50 < 20 μM) were then tested for their toxicity on LLC-PK1 cells.
# [3] = system: Pig Kidney Epithelial (LLC-PK1) cell line (ATCC CL-101); assay: as above; format: cell-based; settings: LLC-PK1 cells
# Method: as §1, §2, §3, §4, §5, §6, §7
# [4] = MTT cytotoxicity assay on noncancerous LLC-PK1 cells; format: cell-based; settings: pig, LLC-PK1 pig kidney epithelial cells, read-out: % Cell Viability on Noncancer LLC-PK1 cells
melting point [°C],Compound,"IC50 ([1]; Homo sapiens, 24 h) [µM]",IC50 [1] [µM],also measured
–,COc1cc(/C=C/C(=O)c2ccccn2)cc(OC)c1OC [Compound 16],< 20,19.6 ± 1.04,"viability at 24 h, 10 µM ([2]; 10 μM): 99.1 ± 3.1%; viability at 24 h, 50 µM [2]: 102 ± 12.1%; viability at 24 h, 100 µM [2]: 104 ± 6.5%; toxicity on the noncancerous LLC-PK1 cell line (in words) [3]: almost complete absence of toxicity"
–,COc1cc(/C=C/C(=O)c2ccco2)cc(OC)c1OC [Compound 14],29.1 ± 1.82,–,"inhibition at 25 µM ([1]; Homo sapiens, 25 μM): 42.9%; inhibition at 50 µM ([1]; Homo sapiens, 50 μM): 26.5%; inhibition at 100 µM ([1]; Homo sapiens, 100 μM): 15.1%"
229 to 230,"O=C(/C=C/c1cccs1)c1ccc2c(c1)Nc1ccccc1S2 [Compound 9, (E)-3-(Thiophen-2-yl)-1-(10H-phenothiazin-2-yl)prop-2-en-1-one]",< 20,12.5 ± 1.74,"viability at 24 h, 10 µM ([2]; 10 μM): 98.8 ± 10.6%; viability at 24 h, 50 µM [2]: 98.2 ± 7.3%; viability at 24 h, 100 µM [2]: 97.1 ± 5%; toxicity on the noncancerous LLC-PK1 cell line (in words) [3]: almost complete absence of toxicity"
202 to 203,"O=C(/C=C/c1ccccc1Cl)c1ccc2c(c1)Nc1ccccc1S2 [Compound 7, (E)-3-(2-Chlorophenyl)-1-(10H-phenothiazin-2-yl)prop-2-en-1-one]",< 20,18 ± 1.63,"viability at 24 h, 10 µM ([2]; 10 μM): 100 ± 6.5%; viability at 24 h, 50 µM [2]: 109 ± 10.9%; viability at 24 h, 100 µM [2]: 94.8 ± 7.6%; toxicity on the noncancerous LLC-PK1 cell line (in words) [3]: almost complete absence of toxicity"
130 to 131,"COc1ccc(C(=O)/C=C/c2ccccn2)c(O)c1 [Compound 19, (E)-3-(Pyridin-2-yl)-1-(2-hydroxy-4-methoxyphenyl)prop-2-en-1-one]",26.6 ± 1.72,–,–
232 to 233,"CN(C)c1ccc(/C=C/C(=O)c2ccc3c(c2)Nc2ccccc2S3)cc1 [Compound 1, (E)-3-(4-(N,N-Dimethylamino)phenyl)-1-(10H-phenothiazin-2-yl)prop-2-en-1-one]",–,–,–
128 to 129,"COc1ccc(C(=O)/C=C/c2cccnc2)c(O)c1 [Compound 20, (E)-3-(Pyridin-3-yl)-1-(2-hydroxy-4-methoxyphenyl)prop-2-en-1-one]",20.8 ± 1.33,–,–
215 to 216,"O=C(/C=C/c1ccc(OCc2ccccc2)cc1)c1ccc2c(c1)Nc1ccccc1S2 [Compound 2, (E)-3-(4-Benzyloxyphenyl)-1-(10H-phenothiazin-2-yl)prop-2-en-1-one]",–,–,–
–,"CC(=O)O[C@H]1C(=O)[C@@]2(C)[C@H]([C@H](OC(=O)c3ccccc3)[C@]3(O)C[C@H](OC(=O)[C@H](O)[C@@H](NC(=O)c4ccccc4)c4ccccc4)C(C)=C1C3(C)C)[C@]1(OC(C)=O)CO[C@@H]1C[C@@H]2O [Paclitaxel, reference compound]",10.8 ± 0.47,–,"viability at 24 h, 10 µM ([2]; 10 μM (paclitaxel reference)): 108 ± 8.2%; viability at 24 h, 2 µM ([4]; 2 μM (paclitaxel reference)): 103 ± 6%; viability at 24 h, 20 µM ([4]; 20 μM (paclitaxel reference)): 75 ± 3.6%"
–,COc1cc(/C=C/C(=O)c2cccs2)cc(OC)c1OC [Compound 13],26.6 ± 1.42,–,–
230 to 232,"O=C(/C=C/c1cccc(Br)c1)c1ccc2c(c1)Nc1ccccc1S2 [Compound 3, (E)-3-(3-Bromophenyl)-1-(10H-phenothiazin-2-yl)prop-2-en-1-one]",–,–,–
178 to 179,"COc1ccc(/C=C/C(=O)c2ccc3c(c2)Nc2ccccc2S3)c(OC)c1 [Compound 8, (E)-3-(2,4-Dimethoxyphenyl)-1-(10H-phenothiazin-2-yl)prop-2-en-1-one]",< 20,19.7 ± 1.63,"viability at 24 h, 10 µM ([2]; 10 μM): 97.3 ± 10.2%; viability at 24 h, 50 µM [2]: 103 ± 6.4%; viability at 24 h, 100 µM [2]: 105 ± 5.4%; toxicity on the noncancerous LLC-PK1 cell line (in words) [3]: almost complete absence of toxicity"
–,(E)-3-(Pyridin-2-yl)-1-(2-hydroxyphenyl)prop-2-en-1-one [Compound 17],–,92.9 ± 6.14,–
–,CN(C)c1ccc(/C=C/C(=O)c2ccco2)cc1 [Compound 15],77.3 ± 4.69,–,–
–,(E)-3-(Pyridin-3-yl)-1-(2-hydroxyphenyl)prop-2-en-1-one [Compound 18],–,91.1 ± 2.45,–
–,O=C(/C=C/c1ccc(Cl)cc1)c1cccs1 [Compound 10],49.6 ± 3.2,–,–
–,O=C(/C=C/c1ccccc1O)c1cccs1 [Compound 11],48.8 ± 2.42,–,–
